Results taken from patent US20030108872A1, “Genomics-assisted rapid identification of targets” (priority 2000, published 2003).

Experiments:
Assay type in all cases: cell-based
[1] = test system: B. subtilis NO-347 (BD170 thrC::Pspac-murA kanR ΔmurA::CmR); assay: MIC by microbroth dilution in B. subtilis under-expressing murA; settings: IPTG 0-0.1 mM, compared to the control strain, FIG. 10
Procedure: Materials and Methods. The materials are the same as discussed above. Plasmids are listed in Table 4 B. subtilis strains were routinely grown in LB media or on LB agar plates containing 1.5% agar (Sambrook et al., MOLECULAR CLONING: A LABORATORY MANUAL, 2nd ed., Cold Spring Harbor Laboratory Press, 1989). MIC determination is performed using microbroth dilution-cultures grown in Mueller Hinton broth in 96-well microtiter plates purchased from Nunc (Plates—Cat. No. 262162; Lids—Cat. No. 264122). When required, media were supplemented with 5 μg/ml chloramphenicol or 10 μg/ml kanamycin. IPTG was added to culture media at a final concentration of 0.05 mM for routine culture growth of B. subtilis NO-347 (BDI70 thrC::Pspac-murA kan^R ΔmurA::Cm^R), which is dependent on IPTG for growth.
The endogenous murA gene in NO-360 was deleted by allelic replacement as follows (see FIG. 9). DNA fragments flanking the 5′ and 3′ ends of the murA gene were amplified from B. subtilis 168 genomic DNA using primer pairs KO mura F1+R2 and KO murA F2+R1, respectively. The 5′ and 3′ flanking fragments were linked to the Cm^R gene from pEVP3 using the cross-over PCR technique with the primer pair KO mura F1+R1. The resulting PCR product (shown in FIG. 9B) was used to transform naturally competent B. subtilis NO-360. Cm^R clones were selected in the presence of 0.01 mM and 0.05 mM IPTG. Allelic replacement of murA in Cm^R clones was verified by PCR. Strain NO-347 (BD170 thrC::Pspac-murA Kan^R ΔmurA::Cm^R) was chosen for MIC determinations for phosphomycin in presence of various concentrations of the regulator IPTG.
MIC determinations. Determination of minimum inhibitory concentration (MIC) for phosphomycin, novobiocin, erythromycin and trimethoprim lactate were performed in 96-well microliter plates using the microbroth dilution technique as described in NCCLS. 1997. Methods for dilution antimicrobial susceptibility tests for bacteria that grow aerobically-fourth edition; approved standard. NCCLS document M7-A4. NCCLS, Wayne, Pa. For MIC determinations using strain NO-347, various concentrations (0-0.1 mM) were added to the media. Growth was quantitated by OD600 measurements using a SpectroMax 250 plate reader (Molecular Devices).

[2] = test system: cells in which murA is regulated by PBAD; assay: MIC by microbroth dilution in E. coli under-expressing murA; settings: for MIC with decreasing regulator (L-arabinose) level: FIG. 4; for sensitivity on under-expression of murA: FIG. 6
Procedure: The wild-type gene murA, which encodes the enzyme UDP-N-acetylglucosamine enolpyruvate transferase, was knocked out in E. coli, and the gene was placed under ectopic expression in the yibD locus under regulation by PBAD with the regulator, L-arabinose.
(§1) Methods. […] IPTG was added to a final concentration of 0.1 mM and anhydrous-tetracycline was added to a final concentration of 100 ng/ml to the culture media for routine growth of GTC-EC#313 and GTC-EC#346, respectively.
(§2) The specificity and sensitivity of the resultant colonies to added drugs were followed by measuring the minimal inhibitory concentration (MIC) of trimethoprim, sulfamethozasone, phosphomycin and D-cycloserine at varying regulator levels. This was performed according to NCCLS (National Center for Clinical Laboratory Standards) recommendations(NCCLS, 1997, METHODS FOR DILUTION ANTIMICROBIAL SUSCEPTIBILITY TESTS FOR BACTERIA THAT GROW AEROBICALLY, 4th ed.; approved standard. NCCLS document M7-A4. NCCLS, Wayne, Pa.), in 100 μl volume in 96-well format, with serial two-fold dilutions of drug concentration.

[3] = test system: E. coli MC1061, Ec211, Ec261, Ec239, Ec238; assay: Transformation selection: growth on drug plates of strains over-expressing folA or murA; settings: for growth on MHB plates supplemented with drug: 5 μg/ml trimethoprim or 25 μg/ml phosphomycin, no L-arabinose, all strains, FIG. 15
From the text: Methods. The genes folA, and murA were amplified from the genomic DNA of E. coli. Each gene was independently cloned in frame into pBAD/Myc-HisB vector, such that expression of the gene is under the regulation of the promoter PBAD. Hexahistidine encoding tags were incorporated into the 3′ end of the gene encoding the C-terminus of the protein through primer design. The construct introduced into the host cells of E. coli MC1061, resulting in Ec211 (construct with folA) and Ec261 (construct with murA).
The entire vector region (araC, PBAD, folA or murA, ampicillin resistance gene) of the above two constructs, but minus the origin, was PCR amplified through primer pairs homologous to regions flanking the origin. The PCR products were then linked at their 5′ ends to the 1 kb region upstream of yibD locus, and linked at their 3′ ends to the 1 kb region downstream of E. coli yibD locus (in effect, replacing yibD) by “crossover PCR” (Kim et al., 1996 Biotechniques 20: 954-5). The linear DNA product was gel purified and introduced into competent and recombinogenic MC1061. Recombinogenic ability was supplied by the red/gam function of plasmid pTP223.
Ec211, […], Ec238, Ec239, and MC1061 were freshly streaked onto Mueller Hinton Broth (MHB) plates. After an overnight incubation at 37° C., they were streaked into different segments onto different selection plates in the order of MHB supplemented with 5 μg/ml trimethoprim, MHB supplemented with 5 μg/ml trimethoprim and 0.1% L-arabinose, MHB supplemented with 25 μg/ml phosphomycin, MHB supplemented with 25 μg/ml phosphomycin and 0.1% L-arabinose, MHB supplemented with 0.1% L-arabinose, and finally plain MHB plates. The plates are 10 cm circular plates filled with 30 ml of media and divided into 6 equal segments. MC1061 was streaked in the first segment, Ec211 in second, Ec261 in third, Ec239 in fourth, Ec238 in fifth and the sixth segment was left blank.

[4] = test system: cells in which folA is regulated by PBAD, PLtetO-1, or Plac/ara-1; assay: MIC by microbroth dilution in E. coli under-expressing folA; settings: for MIC with decreasing regulator level: PLtetO-1 or Plac/ara-1, regulators L-arabinose, anhydrotetracycline, IPTG, FIG. 3
Procedure: In another example, the wild-type native folA gene was knocked out, and a wild-type copy of the gene folA, which encodes the protein dihydrofolate reductase, was placed under ectopic expression in the yibD locus under regulation by PBAD with the regulator, L-arabinose. Dihydropteroate synthetase, the gene product of […], catalyzes the enzymatic reaction two steps before dihydrofolate reductase in the folate biosynthetic pathway.
as §1, §2

Compound | sensitivity (MIC) on regulated under-expression of murA [1] | MIC with decreasing regulator (L-arabinose) level [2] | sensitivity on under-expression of murA [2] | growth on MHB plates supplemented with drug [3] | growth on MHB plates with drug and L-arabinose (over-expression rescue) ([3]; 25 μg/ml phosphomycin and 0.1% L-arabinose, Ec261 (multiple copies of murA) and Ec238 (two copies of murA)) | MIC with decreasing regulator level [4] | growth on MHB plates with drug and L-arabinose (over-expression rescue) ([3]; 5 μg/ml trimethoprim and 0.1% L-arabinose, Ec211 (multiple copies of folA, PBAD)) | MIC with decreasing regulator (L-arabinose) level ([4]; FIG. 5)
C[C@@H]1O[C@@H]1P(=O)(O)O [phosphomycin] | increased sensitivity | decreases | hypersensitivity | Nothing grew | grew up | relatively unchanged |  | 
COc1cc(Cc2cnc(N)nc2N)cc(OC)c1OC [trimethoprim] | does not affect sensitivity | relatively unchanged | not sensitive | Nothing grew |  | decreases | the only strain that grew up | decreases
